Experimental data: US20250042890A1, “METHIONINE ADENOSYLTRANSFERASE 2a (MAT2A) INHIBITORS AND USES THEREOF” (Insilico Medicine IP Limited, priority 2021, published 2025)

molecular target: MAT2A (Homo sapiens (Human), UniProt P31153); test: MAT2A Biochemical Assay; settings: Biomol Green readout O.D.620; 1 uM start, 3-fold dilution, 10 doses; read-out: MAT2A enzymatic IC50
Description: Example A: MAT2A Biochemical Assay
Compounds described herein were tested as follows:
• (1). Prepared 1×Assay buffer. • (2). Preparation of compound concentration gradient: the compounds test condition were 1 uM start, 3-fold dilution, 10 doses, singlet or duplicate. 100× concentration compounds were prepared in 384-well plate. Then used Echo 550 to transfer 250 nl to a 384-reaction plate for later use. Added 250 nl of 100% DMSO to the negative and positive control wells. • (3). Prepared 1.67× final concentration enzyme solution with 1×Assay buffer. • (4). Added 15 μl of 1.67× Enzyme solution to the compound wells and positive control wells; added 15 μl of 1 Assay buffer to the negative control wells. • (5). Centrifuged at 1000 rpm for 30 seconds and incubate for 15 minutes. • (6). Prepared 2.5× final concentration Substrate mix solution with 1×Assay buffer. • (7). Added 10 μl of 2.5× final concentration Substrate mix solution to start the reaction. • (8). Centrifuged at 1000 rpm for 30 seconds and incubate for 150 minutes. • (9). Added 50 μl Biomol Green to stop the reaction, centrifuge at 1000 rpm for 30 seconds and incubate for 15 minutes. read O.D.620, process data.
• (1) Using GraphPad Prism 5. • (2) % Inh=(Max signal−Compound signal)/(Max signal−Min signal)*100. • (3) Max signal was obtained from the positive control wells. • (4) Min signal was obtained from the negative control wells.

Chain of MAT2A (P31153 whole entry, species assumed): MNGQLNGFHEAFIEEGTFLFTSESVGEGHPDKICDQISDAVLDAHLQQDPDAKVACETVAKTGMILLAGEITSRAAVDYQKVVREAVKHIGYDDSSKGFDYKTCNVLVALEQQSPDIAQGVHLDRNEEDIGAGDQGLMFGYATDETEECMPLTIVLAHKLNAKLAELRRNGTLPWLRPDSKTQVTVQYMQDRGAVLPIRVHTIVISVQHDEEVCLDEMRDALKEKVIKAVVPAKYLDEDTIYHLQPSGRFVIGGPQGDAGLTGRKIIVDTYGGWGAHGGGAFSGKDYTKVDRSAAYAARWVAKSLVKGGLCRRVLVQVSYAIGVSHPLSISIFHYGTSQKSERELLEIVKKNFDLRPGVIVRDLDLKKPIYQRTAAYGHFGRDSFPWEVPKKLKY

Structure (SMILES) | IC50 [nM]
C#CCNc1nc(=O)n(-c2cccnc2)c2cc(Cl)ccc12 [Example 1, 7-chloro-4-(prop-2-yn-1-ylamino)-1-(pyridin-3-yl)quinazolin-2 (1H)-one] | < 50
O=c1nc(NCC#CC2CC2)c2ccc(Cl)cc2n1-c1cccnc1 [Example 2, 7-chloro-4-((3-cyclopropylprop-2-yn-1-yl)amino)-1-(pyridin-3-yl)quinazolin-2 (1H)-one] | < 50
C#CC1(Nc2nc(=O)n(-c3cccnc3)c3cc(Cl)ccc23)CC1 [Example 4] | < 50
C=CCNc1nc(=O)n(-c2cccnc2)c2cc(Cl)ccc12 [Example 5, 4-(allylamino)-7-chloro-1-(pyridin-3-yl)quinazolin-2 (1H)-one] | < 50
C#CCCCNc1nc(=O)n(-c2cccnc2)c2cc(Cl)ccc12 [Example 6, 7-chloro-4-(pent-4-yn-1-ylamino)-1-(pyridin-3-yl)quinazolin-2 (1H)-one] | < 50
C#CCNc1nc(=O)n(-c2cccnc2)c2cc(C(F)(F)F)ccc12 [Example 7, 4-(prop-2-yn-1-ylamino)-1-(pyridin-3-yl)-7-(trifluoromethyl)quinazolin-2 (1H)-one] | < 50
C#CCCNc1nc(=O)n(-c2ccccc2Cl)c2cc(Cl)ccc12 [Example 8, 4-(but-3-yn-1-ylamino)-7-chloro-1-(2-chlorophenyl)quinazolin-2 (1H)-one] | < 50
C#CCNc1nc(=O)n(-c2ccccc2Cl)c2cc(Cl)ccc12 [Example 10, 7-chloro-1-(2-chlorophenyl)-4-(prop-2-yn-1-ylamino)quinazolin-2 (1H)-one] | < 50
C#CC1CCN(c2nc(=O)n(-c3ccccc3Cl)c3cc(Cl)ccc23)CC1 [Example 13, 7-chloro-1-(2-chlorophenyl)-4-(4-ethynylpiperidin-1-yl)quinazolin-2 (1H)-one] | > 1000
O=c1nc(NCC#CCN2CCOCC2)c2ccc(C(F)(F)F)cc2n1-c1cccnc1 [Example 14, 4-((4-morpholinobut-2-yn-1-yl)amino)-1-(pyridin-3-yl)-7-(trifluoromethyl)quinazolin-2 (1H)-one] | < 50
C#CC1(Nc2nc(=O)n(-c3cccnc3C)c3cc(Cl)ccc23)CC1 [Example 16, 7-chloro-4-((1-ethynylcyclopropyl)amino)-1-(2-methylpyridin-3-yl)quinazolin-2 (1H)-one] | < 50
C#CCNc1nc(=O)n(-c2cccnc2)c2cc(Br)ccc12 [Example 18, 7-bromo-4-(prop-2-yn-1-ylamino)-1-(pyridin-3-yl)quinazolin-2 (1H)-one] | < 50
C#CCNc1nc(=O)n(-c2cccnc2C)c2cc(C(F)(F)F)ccc12 [Example 33, 1-(2-methylpyridin-3-yl)-4-(prop-2-yn-1-ylamino)-7-(trifluoromethyl)quinazolin-2 (1H)-one] | < 50
C#CC(C)Nc1nc(=O)n(-c2cccnc2)c2cc(C(F)(F)F)cc(OC)c12 (stereo not shown) [Example 35, 4-(but-3-yn-2-ylamino)-5-methoxy-1-(pyridin-3-yl)-7-(trifluoromethyl)quinazolin-2 (1H)-one] | < 50
C#CCNc1nc(=O)n(-c2cccnc2)c2cc(C(F)(F)F)cc(OCF)c12 [Example 38, 5-(fluoromethoxy)-4-(prop-2-yn-1-ylamino)-1-(pyridin-3-yl)-7-(trifluoromethyl)quinazolin-2 (1H)-one] | < 50
C#CCNc1nc(=O)n(-c2cccnc2C(C)C)c2cc(C(F)(F)F)ccc12 [Example 45, 1-(2-isopropylpyridin-3-yl)-4-(prop-2-yn-1-ylamino)-7-(trifluoromethyl)quinazolin-2 (1H)-one] | < 50
C#CC1(Nc2nc(=O)n(-c3cccnc3C)c3cc(C(F)(F)F)ccc23)CC1 [Example 46, 4-((1-ethynylcyclopropyl)amino)-1-(2-methylpyridin-3-yl)-7-(trifluoromethyl)quinazolin-2 (1H)-one] | < 50
C#CC1(Nc2nc(=O)n(-c3cccnc3)c3cc(C(F)(F)F)cc(OC)c23)CC1 [Example 47, 4-((1-ethynylcyclopropyl)amino)-5-methoxy-1-(pyridin-3-yl)-7-(trifluoromethyl)quinazolin-2 (1B)-one] | < 50
C#CC1(Nc2nc(=O)n(-c3cccnc3C)c3cc(C(F)(F)F)cc(OC)c23)CC1 [Example 49] | < 50

The next lines start with the values.

IC50 [nM] | Structure (SMILES)
< 50 | C#CCNc1nc(=O)n(-c2cccnc2C)c2cc(Cl)ccc12 [Example 15, 7-chloro-1-(2-methylpyridin-3-yl)-4-(prop-2-yn-1-ylamino)quinazolin-2 (1H1)-one]
< 50 | C#CCNc1nc(=O)n(-c2cnccn2)c2cc(Cl)ccc12 [Example 17, 7-chloro-4-(prop-2-yn-1-ylamino)-1-(pyrazin-2-yl)quinazolin-2 (1H)-one]
< 50 | C#CCNc1nc(=O)n(-c2cccnc2C)c2cc(Br)cc(OC)c12 [Example 19, 7-bromo-5-methoxy-1-(2-methylpyridin-3-yl)-4-(prop-2-yn-1-ylamino)quinazolin-2 (1H)-one]
< 50 | C#CCNc1nc(=O)n(-c2cccnc2)c2cc(Cl)cc(OC)c12 [Example 20, 7-chloro-5-methoxy-4-(prop-2-yn-1-ylamino)-1-(pyridin-3-yl)quinazolin-2 (1H)-one]
< 50 | C#CCNc1nc(=O)n(-c2cnccn2)c2cc(Cl)cc(OC)c12 [Example 21, 7-chloro-5-methoxy-4-(prop-2-yn-1-ylamino)-1-(pyrazin-2-yl)quinazolin-2 (1H)-one]
< 50 | C#CCNc1nc(=O)n(-c2cccnc2C)c2cc(Cl)cc(OC)c12 [Example 22, 7-chloro-5-methoxy-1-(2-methylpyridin-3-yl)-4-(prop-2-yn-1-ylamino)quinazolin-2 (1H)-one]
< 50 | C#CCNc1nc(=O)n(-c2nccnc2C)c2cc(Cl)cc(OC)c12 [Example 23, 7-chloro-5-methoxy-1-(3-methylpyrazin-2-yl)-4-(prop-2-yn-1-ylamino)quinazolin-2 (1H)-one]
< 50 | C#CC1(Nc2nc(=O)n(-c3cnccn3)c3cc(Cl)cc(OC)c23)CC1 [Example 24, 7-chloro-4-((1-ethynylcyclopropyl)amino)-5-methoxy-1-(pyrazin-2-yl)quinazolin-2 (1H)-one]
< 50 | C#CC1(Nc2nc(=O)n(-c3nccnc3C)c3cc(Cl)cc(OC)c23)CC1 [Example 25, 7-chloro-4-((1-ethynylcyclopropyl)amino)-5-methoxy-1-(3-methylpyrazin-2-yl)quinazolin-2 (1H)-one]
< 50 | C#CC(C)Nc1nc(=O)n(-c2cccnc2C)c2cc(Cl)cc(OC)c12 (stereo not shown) [Example 26]
< 50 | C#CC1(Nc2nc(=O)n(-c3cccnc3C)c3cc(Cl)cc(OC)c23)CC1 [Example 27, 7-chloro-4-((1-ethynylcyclopropyl)amino)-5-methoxy-1-(2-methylpyridin-3-yl)quinazolin-2 (11H)-one]
< 50 | C#CC1(Nc2nc(=O)n(-c3cccnc3C)c3cc(Cl)cc(OC)c23)CCC1 [Example 28]
< 50 | C#CCNc1nc(=O)n(-c2cccnc2)c2cc(Cl)cc(F)c12 [Example 29, 7-chloro-5-fluoro-4-(prop-2-yn-1-ylamino)-1-(pyridin-3-yl)quinazolin-2 (1H)-one]
< 50 | C#CCNc1nc(=O)n(-c2cccnc2C)c2cc(Cl)cc(F)c12 [Example 30, 7-chloro-5-fluoro-1-(2-methylpyridin-3-yl)-4-(prop-2-yn-1-ylamino)quinazolin-2 (1H)-one]
< 50 | C#CC1(Nc2nc(=O)n(-c3cccnc3C)c3cc(Cl)cc(F)c23)CC1 [Example 31, 7-chloro-4-((1-ethynylcyclopropyl)amino)-5-fluoro-1-(2-methylpyridin-3-yl)quinazolin-2 (11H)-one]
< 50 | C#CCNc1nc(=O)n(-c2cccnc2)c2cc(C(F)(F)F)cc(OC)c12 [Example 34, 5-methoxy-4-(prop-2-yn-1-ylamino)-1-(pyridin-3-yl)-7-(trifluoromethyl)quinazolin-2 (1H)-one]
< 50 | C#CCNc1nc(=O)n(-c2cccnc2C)c2cc(C(F)(F)F)cc(OC)c12 [Example 36, 5-methoxy-1-(2-methylpyridin-3-yl)-4-(prop-2-yn-1-ylamino)-7-(trifluoromethyl)quinazolin-2 (1H)-one]
< 50 | C#CC(C)Nc1nc(=O)n(-c2cccnc2C)c2cc(C(F)(F)F)cc(OC)c12 (stereo not shown) [Example 37]
< 50 | C#CCNc1nc(=O)n(-c2cccnc2C)c2cc(C(F)(F)F)cc(OC(F)F)c12 [Example 40, 5-(difluoromethoxy)-1-(2-methylpyridin-3-yl)-4-(prop-2-yn-1-ylamino)-7-(trifluoromethyl)quinazolin-2 (1l)-one]
< 50 | C#CCNc1nc(=O)n(-c2cccnc2C)c2nc(C(F)(F)F)cc(OC)c12 [Example 42, 5-methoxy-1-(2-methylpyridin-3-yl)-4-(prop-2-yn-1-ylamino)-7-(trifluoromethyl)pyrido[2,3-d]pyrimidin-2 (1H)-one]
< 50 | C#CCNc1nc(=O)n(-c2nccnc2C)c2cc(C(F)(F)F)cc(OC)c12 [Example 48, 5-methoxy-1-(3-methylpyrazin-2-yl)-4-(prop-2-yn-1-ylamino)-7-(trifluoromethyl)quinazolin-2 (1H)-one]
